One data set can be described thus: physchem. It is filed as physicochemical. Here is the method:
Solubility assays were performed using a miniaturized shake flask method. Stock solutions (10 mM) of each test compound were used to prepare calibration standards (10–220 μM) in DMSO and to spike (1:50) duplicate aqueous samples of FaSSIF (simulating fasting state biorelevant media, pH 6.5) with a final DMSO concentration of 2%. After shaking for 2 h at 25°C, the solutions were filtered and analyzed by means of high-performance liquid chromatography with diode-array detection (HPLC-DAD) (Agilent 1200 Rapid Resolution HPLC with a diode array detector). Best-fit calibration curves were constructed using the calibration standards, which were used to determine the aqueous sample solubility ([32]).

Another data set has as its system HepG2 cells. The experiment in a line: Cell health assay (three-parameter imaging). It is filed as cell-based, human. On the procedure:
This is a three-parameter automated imaging cell-based assay to measure the cytotoxic effect of compounds in human liver-derived HepG2 cells. Using fluorescent staining, we measured the following key parameters in this assay: nuclear size, mitochondrial membrane potential and plasma membrane permeability. HepG2 cells (ATCC HB-8065) were incubated with the test compounds in 384-well plates. After 48 h, the staining cocktail was added. Hoechst 33342 was used to stain nuclei and quantify changes in nuclear morphology. Tetramethylrhodamine, methyl ester is a cationic dye that accumulates in healthy mitochondria that maintain a mitochondrial membrane potential and leaks out of mitochondria when the mitochondrial membrane potential is dissipated. TOTO-3 iodide labels nuclei of permeabilized cells and is used to measure plasma membrane permeability. Following 45 min of incubation with these stains, the plates were sealed using a black seal for reading on an INCell Analyzer 2000 (GE Healthcare). Each parameter measurement produces the percentages of cells which are “live” or “dead.” The IC50 is defined as the compound concentration that inhibits 50% of cell growth.

The procedure of data set [1]:
The Ames assay was carried out as previously described ([34]) using all strains.

The next data set concerns the target hERG (Homo sapiens, UniProt Q12809). As to the kind of experiment: hERG Qpatch. Type of data set: biochemical. On the procedure:
hERG activity was measured as previously described ([35]).
(In general: The hERG channel carries a current that helps repolarise heart muscle cells.)

Values after ≈ are worked out from the molar mass of the structure shown.

Usually solubility stands for the dissolved amount per volume that the medium holds. What is called IC50 is the concentration at which inhibition is half-maximal. Higher therefore signals weaker potency in that assay.

Chain of hERG (Q12809 whole entry): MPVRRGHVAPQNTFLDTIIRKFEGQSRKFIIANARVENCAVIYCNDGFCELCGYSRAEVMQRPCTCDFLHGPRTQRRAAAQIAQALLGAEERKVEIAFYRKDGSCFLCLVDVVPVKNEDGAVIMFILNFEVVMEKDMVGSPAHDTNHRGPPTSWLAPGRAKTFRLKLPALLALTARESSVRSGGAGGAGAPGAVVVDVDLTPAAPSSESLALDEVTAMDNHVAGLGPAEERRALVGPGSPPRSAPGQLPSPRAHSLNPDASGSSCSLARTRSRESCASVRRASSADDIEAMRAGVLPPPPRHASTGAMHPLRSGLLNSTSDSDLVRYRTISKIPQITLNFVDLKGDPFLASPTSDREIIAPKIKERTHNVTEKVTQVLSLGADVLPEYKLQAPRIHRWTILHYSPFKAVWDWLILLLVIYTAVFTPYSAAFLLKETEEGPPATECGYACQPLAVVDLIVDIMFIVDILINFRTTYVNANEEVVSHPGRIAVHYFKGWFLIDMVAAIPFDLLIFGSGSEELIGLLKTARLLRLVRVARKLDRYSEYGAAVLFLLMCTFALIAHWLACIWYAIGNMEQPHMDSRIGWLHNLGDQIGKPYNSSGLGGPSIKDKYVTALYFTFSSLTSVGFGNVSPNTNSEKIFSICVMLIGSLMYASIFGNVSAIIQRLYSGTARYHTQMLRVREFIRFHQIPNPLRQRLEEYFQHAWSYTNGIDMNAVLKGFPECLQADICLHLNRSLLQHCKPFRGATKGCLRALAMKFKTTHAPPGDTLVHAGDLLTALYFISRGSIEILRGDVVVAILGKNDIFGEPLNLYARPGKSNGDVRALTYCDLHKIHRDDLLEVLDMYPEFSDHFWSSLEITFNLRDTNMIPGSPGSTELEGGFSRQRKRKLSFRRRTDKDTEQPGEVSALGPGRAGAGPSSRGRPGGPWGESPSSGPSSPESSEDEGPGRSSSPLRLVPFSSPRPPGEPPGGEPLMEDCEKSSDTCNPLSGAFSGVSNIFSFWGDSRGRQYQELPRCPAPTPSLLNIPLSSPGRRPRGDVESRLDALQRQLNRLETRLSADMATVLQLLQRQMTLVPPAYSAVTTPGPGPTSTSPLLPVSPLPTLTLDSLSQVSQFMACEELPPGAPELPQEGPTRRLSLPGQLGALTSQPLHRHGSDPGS

For the molecule `Cc1csc([C@](C)(O)c2nnc(Nc3cc(C)n(Cc4csc(C)n4)n3)s2)n1` [GSK138], in the data set “physchem”, the “solubility in FaSSIF” value is “high”. For the same molecule, in the data set “physchem” (pH 6.5), the solubility at 2 h was 140 to 320 µM (≈ 60.7 to 139 µg/mL). Further, the “Cell health IC50 (nuclear size, mitochondrial membrane potential, and plasma membrane permeability)” value with HepG2 cells (HepG2, 48 h) is recorded as >199.5 µM. Moreover, the “effect in the cell health assay” value in the data set with HepG2 cells (membrane, nuclear and mitochondrial damages) is “no effect up to the highest concentration tested (200 µM)”. In data set [1], the Ames test entry is “Negative”. The IC50 against hERG was > 30 µM.

The values are drawn from paper PMC11539229 (Antimicrobial Agents and Chemotherapy, 2024).
